Measurements: patent publication US20260335347A1, “COMBINATION THERAPY WITH SPARSENTAN AND A SGLT2 INHIBITOR FOR TREATING KIDNEY DISEASES OR DISORDERS” (Travere Therapeutics, Inc., priority 2022, published 2026)
Like-named read-outs stand apart in the source and are kept apart here. Each block holds one molecule with its values, some of them ahead of it.

How the values were obtained:
[1] = test system: endothelin (A type) receptors ("ETA" receptors); details: selective dual-acting receptor antagonist; cited from earlier work
patients with FSGS [2] = assay: DUPLEX trial: proportion of patients achieving UP/C ≤1.5 g/g and >40% reduction in UP/C (FPRE); assay type: in vivo, human; details: p=0.0094; for patients achieving FPRE (UP/C ≤1.5 g/g and >40 percent reduction in UP/C from Baseline): after 36 weeks of treatment, first approximately 190 patients
Experimental: (§1) The efficacy and safety of sparsentan were evaluated in DUPLEX, a randomized, double-blind, active-controlled, multicenter, global trial in patients with FSGS after exclusion of known secondary causes.
The trial enrolled patients with eGFR≥30 mL/min/1.73 m^2 and urinary protein to creatinine ratio (UP/C)>1.5 g/g. Randomization was stratified based on eGFR (≥30 to <60 mL/min/1.73 m^2 versus eGFR≥60 mL/min/1.73 m^2) and UP/C values (≤3.5 g/g versus >3.5 g/g for patients≥18 years of age, or ≤2 g/g versus >2 g/g for patients<18 years of age).
(§2) All patients were randomized at a 1:1 ratio to receive sparsentan or the active control, irbesartan. Sparsentan was administered at a dose of 400 mg once daily by mouth for 2 weeks and then titrated to 800 mg once daily as tolerated. Irbesartan was administered at a dose of 150 mg once daily by mouth for 2 weeks and then titrated to 300 mg once daily as tolerated. In patients weighing 50 kg or less, dosing was halved in both treatment arms (e.g., sparsentan administered at a dose of 200 mg once daily by mouth for 2 weeks and then titrated to 400 mg once daily as tolerated).
The proportion of patients achieving a UP/C≤1.5 g/g and a >40% reduction from baseline in UP/C was evaluated after patients completed 36 weeks of treatment.
In the DUPLEX Study, a total of 371 patients were randomized 1:1 to receive either sparsentan or irbesartan, the active control. The study protocol provided for an unblinded analysis to evaluate the interim efficacy endpoint—the proportion of patients achieving FPRE, which is a clinically meaningful endpoint defined as urine protein-to-creatinine ratio (UP/C)≤1.5 g/g and a >40 percent reduction in UP/C from Baseline, at Week 36—following the first approximately 190 patients reaching 36 weeks of treatment. After 36 weeks of treatment, 42.0 percent of patients receiving sparsentan achieved FPRE, compared to 26.0 percent of irbesartan-treated patients (p=0.0094).

[3] = Open-label drug-drug interaction study in healthy adults: plasma dapagliflozin PK; assay type: in vivo, human; details: for AUC(0-inf) / AUC(0-t) / Cmax: human, plasma, 10 mg; for AUC(0-inf): n = 16; for AUC(0-t) / Cmax: n = 20
Experimental: (§3) Potential drug-drug interactions (DDI) of sparsentan with SGLT2 inhibitors are not known. The safety of administering sparsentan and dapagliflozin was evaluated in an open-label, drug-drug interaction study in healthy […]. This phase 1 study examined the effect of multiple doses of sparsentan on the pharmacokinetics (PK) of single-dose dapagliflozin and assessed the safety and tolerability of single-dose dapagliflozin when co-administered after multiple doses of sparsentan in healthy adults.
(§4) The open-label DDI study included Period 1 (Days 1-5; single dose of 10 mg dapagliflozin (“DAPA”) on Day 1, PK sampling pre-dose and up to 96 hours post-dose) and Period 2 (Days 5-14; 800 mg sparsentan (“SPAR”) once daily for 10 days with single 10 mg dose DAPA co-administered on Day 11, DAPA PK sampling pre-dose and up to 96 hours after Day 11 dosing). To avoid hypoglycemic events, subjects received an oral 20% glucose solution in water with the DAPA dose and every ~15 minutes up to 4 hours post-dose. Plasma concentrations and PK parameters of DAPA and SPAR were summarized. Subjects with evaluable data for both periods were included in an ANOVA mixed model analysis of DAPA AUC0-t, AUC0-inf, and Cmax following DAPA+SPAR vs DAPA alone. Treatment-emergent adverse events (TEAEs) were summarized.

[4] = test system: angiotensin II receptors (Type 1) ("AT1" receptors); details: selective dual-acting receptor antagonist; cited from earlier work
patients with IgAN [5] = assay: PROTECT Phase 3 trial: change in proteinuria (UP/C) and eGFR, sparsentan vs irbesartan; assay type: in vivo, human; details: for mean reduction in proteinuria (UP/C) from baseline: after 36 weeks of treatment, first 280 patients, sparsentan 200 mg titrated to 400 mg once daily or irbesartan 150 mg titrated to 300 mg once daily, oral, p<0.0001
Experimental: (§5) The long-term nephroprotective potential of treatment with sparsentan was evaluated in PROTECT, a 114-week, randomized, global, multicenter, double-blind, parallel-group, active-control Phase 3 clinical study in patients with IgAN who have persistent overt proteinuria and remain at high risk of disease progression despite being on a stable dose (or doses) of an angiotensin-converting enzyme inhibitor (ACEI) and/or angiotensin receptor blocker (ARB) that is (are) a maximum tolerated dose that is at least one half of the maximum labeled dose (MLD) (according to approved labeling). The purpose of the study is to evaluate the potential benefit of sparsentan on kidney function by analyzing change in proteinuria (protein in urine) and estimated glomerular filtration rate (eGFR) as compared to current standard treatment.
404 patients aged≥18 years were enrolled in the study globally.
Enrolled patients were at high risk of progressing to renal failure. The trial enrolled patients with eGFR≥30 mL/min/1.73 m^2 and urinary protein to creatinine ratio (UP/C)≥1.0 g/g at screening.
Inclusion criteria included: age 18 years or older at screening; biopsy-proven primary IgAN; proteinuria (UP/C) of ≥1 g/day at screening; eGFR≥30 mL/min/1.73 m^2 at screening; currently on stable dose of ACEI and/or ARB therapy, for at least 12 weeks prior to screening (maximum tolerated dose and at least one-half of the maximum labeled dose); systolic BP≤150 mmHg and diastolic BP≤100 mmHg at screening; willing to undergo change in ACEI and/or ARB and anti-hypertensive medications; and agree to contraception.
(§6) All patients were randomized at a 1:1 ratio to receive sparsentan or the active control, irbesartan (an angiotensin receptor blocker), as a single oral morning dose. Sparsentan was administered at a dose of 200 mg once daily by mouth for 2 weeks and then titrated to 400 mg once daily as tolerated. Irbesartan was administered at a dose of 150 mg once daily by mouth for 2 weeks and then titrated to 300 mg once daily as tolerated.
Change in proteinuria (UP/C) from baseline (Day 1) at Week 36 in sparsentan-treated patients as compared to irbesartan-treated patients was assessed. The Week 36 UP/C was based on a 24-hour urine sample. Secondary outcome measures included eGFR over a 52-week period and a 104-week period following the initial acute effect of randomized therapy. […] Also assessed was eGFR over a 58-week and a 110-week (approximately 2-year) period following the initiation of randomized therapy (the analysis is from Day 1 to 58 weeks postrandomization or from Day 1 to 110 weeks postrandomization, eGFR total slope at 2 years). […]

patients with FSGS [6] = details: Phase 2 clinical study; cited from earlier work
patients with IgAN [7] = assay: PROTECT Phase 3 trial: safety, interim analysis; assay type: in vivo, human; details: 400 mg once daily
Experimental: as §5, §6
The study provided for an analysis of topline results at 36 weeks, following the first 280 patients reaching 36 weeks of treatment.

patients with FSGS [8] = assay: DUPLEX trial: interim safety; assay type: in vivo, human
Experimental: as §1, §2

[9] = Open-label drug-drug interaction study in healthy adults: safety and tolerability (TEAEs); assay type: in vivo, human; details: 10 mg DAPA, 800 mg SPAR once daily
Experimental: as §3, §4

effect of multiple dosing of SPAR on single-dose DAPA PK ([3]; healthy adults, 800 mg SPAR once daily for 10 days): did not affect single-dose DAPA PK
Structure (SMILES): CCCCC1=NC2(CCCC2)C(=O)N1Cc1ccc(-c2ccccc2S(=O)(=O)Nc2noc(C)c2C)c(COCC)c1 [sparsentan, 2-[4-[(2-butyl-4-oxo-1,3-diazaspiro[4.4]non-1-en-3-yl)methyl]-2-(ethoxymethyl)phenyl]-N-(4,5-dimethyl-1,2-oxazol-3-yl)benzenesulfonamide]
affinity for endothelin (A type) receptors [1]: selective dual-acting receptor antagonist with affinity for endothelin (A type) receptors
proportion achieving composite endpoint, sparsentan arm vs irbesartan arm (patients with FSGS [2]; Week 36, vs irbesartan): significantly higher
patients achieving FPRE (UP/C ≤1.5 g/g and >40 percent reduction in UP/C from Baseline) (patients with FSGS [2]): 42.0%
affinity for angiotensin II receptors (Type 1) [4]: selective dual-acting receptor antagonist
reduction in proteinuria compared to the irbesartan-treated group (patients with IgAN [5]; 36 weeks, sparsentan-treated vs irbesartan-treated group): greater than threefold reduction in proteinuria
mean reduction in proteinuria (UP/C) from baseline (patients with IgAN [5]): 49.8%
preliminary eGFR data at interim analysis (patients with IgAN [5]; interim analysis, after two years of treatment): indicative of a potential clinically meaningful treatment effect
reduction of proteinuria in patients with FSGS (patients with FSGS [6]): shown to reduce proteinuria
tolerability (preliminary interim results) (patients with IgAN [7]): generally well-tolerated
tolerability (preliminary review of interim safety results) (patients with FSGS [8]; FSGS): generally well-tolerated
overall safety profiles between treatment groups (patients with FSGS [8]; sparsentan vs active control treatment group): generally comparable between treatment groups

Structure (SMILES): CCCCC1=NC2(CCCC2)C(=O)N1Cc1ccc(-c2ccccc2-c2nnn[nH]2)cc1 [irbesartan]
patients achieving FPRE (UP/C ≤1.5 g/g and >40 percent reduction in UP/C from Baseline) (patients with FSGS [2]): 26.0%
mean reduction in proteinuria (UP/C) from baseline (patients with IgAN [5]): 15.1%

mean peak and extent of DAPA exposure (Cmax and AUC) ([3]; 10 mg DAPA alone vs 10 mg DAPA+800 mg SPAR): similar
AUC(0-inf) ([3]; single 10 mg DAPA alone, Day 1, read-out: AUC0-inf, geometric LSMs (DAPA alone)): 534 ng·h/mL
AUC(0-t) ([3]; single 10 mg DAPA alone, Day 1, read-out: AUC0-t, geometric LSMs (DAPA alone)): 509 ng·h/mL
Cmax ([3]; single 10 mg DAPA alone, Day 1, read-out: Cmax, geometric LSMs (DAPA alone)): 73.9 ng/mL
AUC(0-inf) ([3]; single 10 mg DAPA co-administered on Day 11 with 800 mg SPAR once daily for 10 days, read-out: AUC0-inf, geometric LSMs (DAPA + SPAR)): 565 ng·h/mL
AUC(0-t) ([3]; single 10 mg DAPA co-administered on Day 11 with 800 mg SPAR once daily for 10 days, read-out: AUC0-t, geometric LSMs (DAPA + SPAR)): 526 ng·h/mL
Cmax ([3]; single 10 mg DAPA co-administered on Day 11 with 800 mg SPAR once daily for 10 days, read-out: Cmax, geometric LSMs (DAPA + SPAR)): 79.9 ng/mL
Cmax, GLSMR (DAPA + SPAR vs DAPA alone) ([3]; plasma dapagliflozin, 90% CI 96.0-121.8, intra-subject CV% 22.0): 108.2%
AUC0-t, GLSMR (DAPA + SPAR vs DAPA alone) ([3]; plasma dapagliflozin, 90% CI 99.9-107.0, intra-subject CV% 6.3): 103.4%
AUC0-inf, GLSMR (DAPA + SPAR vs DAPA alone) ([3]; plasma dapagliflozin, 90% CI 103.1-108.9, intra-subject CV% 4.4): 105.9%
Structure (SMILES): CCOc1ccc(Cc2cc([C@@H]3O[C@H](CO)[C@@H](O)[C@H](O)[C@H]3O)ccc2Cl)cc1 [DAPA, dapagliflozin]
tolerability of single-dose DAPA co-administered with multiple doses of SPAR [9]: appeared to be well tolerated
